Calls of active or inactive are those of the source. The calls are words filed in the database; no cut-off is given here.
What was measured:
THP-1 [1] = assay: Inhibition of PMA-induced MMP9 transcript level in human THP1 cells at 15 uM preincubated for 2 hrs followed by PMA addition measured after 24 hrs by RT-PCR analysis; format: functional, cell-based
THP-1 [2] = assay: Inhibition of PMA-induced monocyte to macrophage differentiation in human THP1 cells assessed as reduction in MMP9 enzyme activity at 15 uM preincubated for 2 hrs followed by PMA addition measured after 48 hrs by gelatin zymographic analysis; format: functional, cell-based
THP-1 [3] = assay: Inhibition of PMA-induced monocyte/macrophage invasion in human THP1 cells at 15 uM preincubated for 2 hrs followed by PMA addition measured after 48 hrs by collagen-coated Boyden chamber invasion assay; format: functional, cell-based
THP-1 [4] = assay: Inhibition of PMA-induced monocyte to macrophage differentiation in human THP1 cells assessed as reduction in MMP2 enzyme activity at 15 uM preincubated for 2 hrs followed by PMA addition measured after 48 hrs by gelatin zymographic analysis; format: functional, cell-based
[5] = Antiinflammatory activity in human THP1 cells assessed as inhibition of PMA-induced TNFalpha secretion at 10 uM preincubated for 2 hrs followed by PMA addition measured after 48 hrs by ELISA; format: functional; settings: THP-1
[6] = (§1) Antiinflammatory activity in human THP1 cells assessed as inhibition of PMA-induced IL-1beta secretion at 10 uM preincubated for 2 hrs followed by PMA addition measured after 48 hrs by ELISA; format: functional; settings: THP-1
[7] = (§2) Antiinflammatory activity in human THP1 cells assessed as inhibition of PMA-induced MCP-1 secretion at 10 uM preincubated for 2 hrs followed by PMA addition measured after 48 hrs by ELISA; format: functional; settings: THP-1
[8] = Cytotoxicity against human THP1 cells assessed as cell viability at 20 uM after 48 hrs by tryphan blue dye exclusion assay relative to control; format: functional; settings: THP-1, 48 h, read-out: Activity
THP-1 [9] = assay: Antiinflammatory activity in human THP1 cells assessed as inhibition of PMA-induced COX2 mRNA level preincubated for 2 hrs followed by PMA addition measured after 48 hrs by RT-PCR analysis; format: functional, cell-based
THP-1 [10] = assay: Antiinflammatory activity in human THP1 cells assessed as inhibition of PMA-induced TNFalpha secretion preincubated for 2 hrs followed by PMA addition measured after 48 hrs by ELISA; format: functional, cell-based
THP-1 [11] = assay: Antiinflammatory activity in human THP1 cells assessed as inhibition of PMA-induced IL-1beta secretion preincubated for 2 hrs followed by PMA addition measured after 48 hrs by ELISA; format: functional, cell-based
THP-1 [12] = assay: Antiinflammatory activity in human THP1 cells assessed as inhibition of PMA-induced MCP-1 secretion preincubated for 2 hrs followed by PMA addition measured after 48 hrs by ELISA; format: functional, cell-based
THP-1 [13] = assay: Inhibition of PMA-induced monocyte to macrophage differentiation in human THP1 cells assessed as reduction in cell adherence at 15 uM preincubated for 2 hrs followed by PMA addition measured after 48 hrs by phase contrast microscopic analysis; format: functional, cell-based
THP-1 [14] = assay: Inhibition of PMA-induced monocyte to macrophage differentiation in human THP1 cells assessed as reduction in cell size at 15 uM preincubated for 2 hrs followed by PMA addition measured after 48 hrs by mitotracker dye-based confocal microscopic analysis; format: functional
THP-1 [15] = assay: Inhibition of PMA-induced monocyte to macrophage differentiation in human THP1 cells assessed as reduction in LOX-1 transcript level at 15 uM preincubated for 2 hrs followed by PMA addition measured after 24 hrs by RT-PCR analysis; format: functional, cell-based
THP-1 [16] = assay: Inhibition of PMA-induced monocyte to macrophage differentiation in human THP1 cells assessed as reduction in CD-36 transcript level at 15 uM preincubated for 2 hrs followed by PMA addition measured after 24 hrs by RT-PCR analysis; format: functional, cell-based
THP-1 [17] = assay: Inhibition of PMA-induced monocyte to macrophage differentiation in human THP1 cells assessed as reduction in lysosomal activity at 15 uM preincubated for 2 hrs followed by PMA addition measured after 48 hrs by lysotracker dye-based fluorescence microscopic analysis; format: functional, cell-based
THP-1 [18] = assay: Inhibition of PMA-induced MMP1 transcript level in human THP1 cells at 15 uM preincubated for 2 hrs followed by PMA addition measured after 24 hrs by RT-PCR analysis; format: functional, cell-based
THP-1 [19] = assay: as §1; format: functional
THP-1 [20] = assay: as §2; format: functional

SMILES	inhibition (THP-1 [1])	inhibition (THP-1 [2])	inhibition (THP-1 [3])	inhibition (THP-1 [4])	inhibition at 10 µM [5] [%]	inhibition at 10 µM [6] [%]	inhibition at 10 µM [7] [%]	viability at 20 µM [8] [%]	inhibition (THP-1 [9])	inhibition (THP-1 [10])	inhibition (THP-1 [11])	inhibition (THP-1 [12])	inhibition (THP-1 [13])	inhibition (THP-1 [14])	inhibition (THP-1 [15])	inhibition (THP-1 [16])	inhibition (THP-1 [17])	inhibition (THP-1 [18])	inhibition (THP-1 [19])	inhibition (THP-1 [20])
CN1C(C(=O)/C=C/c2cn(CC(=O)Nc3cccc(Cl)c3)nn2)=C(O)c2ccccc2S1(=O)=O	Active	Active	Active	inactive	91.1	80.4	84	98.2	Active	Dose-dependent effect	Dose-dependent effect	Dose-dependent effect	Active	Active	Active	Active	Active	Active		
CN1C(C(=O)/C=C/c2cn(-c3cccc(F)c3)nn2)=C(O)c2ccccc2S1(=O)=O					48.3			93											inactive	inactive
